Measurements from US20220403345A1, “A MAMMALIAN-AVIAN CHIMERIC MODEL SYSTEM” (INNOVO MIMETICS LIMITED, priority 2019, published 2022).

System: PEA2 ovarian cancer cell line
Assay: PEA2 matrix pellet tumor on egg CAM treated with Carboplatin
Type: in vivo
Details: 400 μg Carboplatin intravenous injection at E13; tumor excised from E16 egg
Experimental: FIGS. 1A-1C are micrographs showing bright field images of a Matrigel® pellet formed comprising 3×10^5 cells of PEA2 ovarian cancer cell line. (1A) is an image of a liquid Matrigel® placed on ParafilmTM at 37° C. for 30 minutes and allowed to solidify before being placed on the CAM of an embryonic day 9 egg (E9; pellet circumference=3-5 mm). (1B) is an image of a tumor excised from an E16 egg following engraftment with a MATRIGEL® pellet, as shown in […]). […] (1C) is images of a low-passage ovarian cancer cell line derived from ascites liquid drained from a patient which was engrafted, and the resulting tumor was excised, fixed embedded, sectioned (7 μm) and stained with either (left) hematoxylin and eosin or (right) for expression of CD44 by immunohistochemistry (tumor diameter is 0.4 cm). The ovarian cancer cell line PEA2 was embedded in a matrix pellet by resuspending 3×10^5 PEA2 cells in 15 μl Matrigel®, on ice, and pipetting onto a solid surface (Parafilm) at 37° C. for 30 minutes (FIG. 1A). The Matrigel® pellet that formed was then placed on the CAM of an E9 egg, close to an underlying CAM blood vessel junction. It was not necessary to wound the CAM surface blood vessels in order to achieve a high rate of engraftment. […] Tissue sections (7 μm thick) were cut and analyzed by histology and immunohistochemistry for cell viability, proliferation and death (FIG. 1C).

N.N.O=C([O-])C1(C(=O)[O-])CCC1.[Pt+2] [Carboplatin]
tumor size compared to the original MATRIGEL pellet: shrunk in size
